# Data taken from paper PMC9908766, “Characterizing metabolic drivers of Clostridioides difficile infection with activity-based hydrazine probes” (Frontiers in Pharmacology, 2023).
# Molecular target: T1, D-proline reductase (PR), PrdA subunit (Clostridioides difficile, UniProt Q17ZY9)
# T1 construct: native PR complex purified from C. difficile VPI 10463; processed PrdA (~23 kDa) with N-terminal pyruvoyl; with PrdB
# Assay: fluorometric OPA assay of 5-aminovalerate production by purified PR
# Format: biochemical
compound,measurement,value
"NNCCc1ccccc1 [compound 5, phenelzine]",IC50,460 ± 30 µM
